Literature values in patent US6683112B2, “Gabapentin prodrugs and formulations” (Andrx Corporation, priority 2000, dated 2004).

What was measured:
[1] = in water and in both basic and acidic conditions

## NCC1(CC(=O)O)CCCCC1 [Gabapentin, 1-(aminomethyl)cyclohexaneacetic acid]
In humans
  metabolism: not extensively metabolized
  route of elimination: eliminated via renal excretion essentially unchanged
Typical dosage range 300-600 mgs T.I.D.
  oral bioavailability: approximately sixty
Unaltered by dose or following multiple dosing
  elimination half life: five to seven
[1]
  solubility: highly soluble
